Laboratory results reported in BigSolDB 2.1.

O.O=C1NC(=O)C(=O)C(=O)N1
solubility (mole fraction)
Settings	293.15 K	298.15 K	303.15 K	308.15 K	313.15 K	318.15 K	323.15 K
in THF	0.046	0.0549	0.0638	0.0739	0.084	0.0954	0.107
in acetone	0.0128	0.0132	0.0136	0.014	0.0143	0.0146	0.015
in ethanol	0.0856	0.0962	0.107	0.119	0.131	0.143	0.155
in ethylene glycol	0.0113	0.0143	0.0172	0.0206	0.024	0.0283	0.0327
in methanol	0.105	0.117	0.129	0.142	0.155	0.168	0.181
in water	0.0377	0.0403	0.0429	0.0456	0.0482	0.051	0.0539
